Legend:
Type in all cases: in vivo
[1] = system: ducksalad (Heteranthera limosa); assay: Test B flooded paddy test; conditions: 250 g ai/ha, Flood; visual rating on scale of 0 to 100 where 0 is no effect and 100 is complete control; 13 to 15 d after treatment
Method in brief: (§1)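 Plants grown to the 2-leaf stage. At treatment, pots were flooded to 3 cm above the soil, compound was applied directly to the paddy water, and that depth was held throughout. After 13 to 15 d in the greenhouse, response was rated visually against controls on a 0 (no effect) to 100 (complete control) scale.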

rice (Oryza sativa) = assay: Test B flooded paddy test; conditions: 250 g ai/ha, Flood; visual rating on scale of 0 to 100 where 0 is no effect and 100 is complete control; 13 to 15 d after treatment
Method in brief: as §1

[2] = system: sedge, umbrella (small-flower umbrella sedge, Cyperus difformis); assay: Test B flooded paddy test; conditions: 250 g ai/ha, Flood; visual rating on scale of 0 to 100 where 0 is no effect and 100 is complete control; 13 to 15 d after treatment
Method in brief: as §1

[3] = system: barnyardgrass (Echinochloa crus-galli); assay: Test B flooded paddy test; conditions: 250 g ai/ha, Flood; visual rating on scale of 0 to 100 where 0 is no effect and 100 is complete control; 13 to 15 d after treatment
Method in brief: as §1

corn (Zea mays) = assay: Test A greenhouse herbicide test, pre- and postemergence; conditions: Postemergence
Method in brief: (§2)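 Seeds in loam–sand blend received a preemergence directed soil spray; plants at 2–10 cm, one- to two-leaf stage, received postemergence sprays. Compounds in a non-phytotoxic solvent with surfactant. After about 10 d in a greenhouse, injury rated visually versus untreated controls on a 0–100 scale (100 = complete control).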

kochia (Kochia scoparia) = assay: as above
Method in brief: as §2

[4] = system: ragweed (common ragweed, Ambrosia elatior); assay: as above
Method in brief: as §2

[5] = system: ryegrass, Italian (Italian ryegrass, Lolium multiflorum); assay: as above
Method in brief: as §2

[6] = system: pigweed (Amaranthus retroflexus); assay: as above
Method in brief: as §2

[7] = system: foxtail, giant (giant foxtail, Setaria faberii); assay: as above
Method in brief: as §2

[8] = system: barnyardgrass (Echinochloa crus-galli); assay: as above
Method in brief: as §2

[9] = system: wheat (Triticum aestivum); assay: as above; conditions: Postemergence
Method in brief: as §2

[10] = system: galium (catchweed bedstraw, Galium aparine); assay: Test A greenhouse herbicide test, postemergence
Method in brief: (§3)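 Pot-grown plants (loam soil/sand blend), 2–10 cm tall at the one- to two-leaf stage, received postemergence sprays of formulated test chemical. After about 10 d in the greenhouse, injury was rated visually against untreated controls on a 0 (no effect) to 100 (complete control) scale.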

[11] = system: blackgrass (Alopecurus myosuroides); assay: Test A greenhouse herbicide test, postemergence
Method in brief: as §3

[12] = 125 g ai/ha, 0 to 100 scale, 0 no effect, 100 complete control
[13] = 500 g ai/ha, visual rating after approx. 10 d, 0 to 100 scale (0 no effect, 100 complete control)
[14] = Postemergence, 125 g ai/ha, 0 to 100 scale, 0 no effect, 100 complete control
[15] = Postemergence, 500 g ai/ha, visual rating after approx. 10 d, 0 to 100 scale (0 no effect, 100 complete control)
[16] = Preemergence, 125 g ai/ha, visual injury rating, 0 to 100 scale (0 no effect, 100 complete control), approx. 10 d
[17] = Preemergence, 500 g ai/ha, 0 to 100 scale where 0 is no effect and 100 is complete control
[18] = Preemergence, second run of lines under the 500 g ai/ha head, rate not given, 0 to 100 scale

Compound | Plant response rating, Ducksalad [1] | Plant response rating, Rice (rice (Oryza sativa)) | Plant response rating, Sedge, Umbrella [2] | Plant response rating, Barnyardgrass [3] | Plant response rating, Corn (corn (Zea mays); [12]) | Plant response rating, Corn (corn (Zea mays); [13]) | Plant response rating, Kochia (kochia (Kochia scoparia); [14]) | Plant response rating, Kochia (kochia (Kochia scoparia); [15]) | Plant response rating, Kochia (kochia (Kochia scoparia); [17]) | Plant response rating, Ragweed [4, 14] | Plant response rating, Ragweed [4, 15] | Plant response rating, Ragweed [4, 17] | Plant response rating, Ryegrass, Italian [5, 14] | Plant response rating, Ryegrass, Italian [5, 15] | Plant response rating, Ryegrass, Italian [5, 17] | Plant response rating, Pigweed [6, 14] | Plant response rating, Pigweed [6, 15] | Plant response rating, Pigweed [6, 17] | Plant response rating, Foxtail, Giant [7, 14] | Plant response rating, Foxtail, Giant [7, 15] | also measured
Cc1nn(C)c(=O)c(-c2ccc(Cl)c3ccccc23)c1OS(=O)(=O)N(C)C [Compound 185] | 0 | 0 | 0 | 0 | 0 | 30 | 70 | 100 | 10 | 10 | 50 | 40 | 70 | 80 | 40 | 50 | 90 | 60 | 0 | 20 | Plant response rating, Kochia (kochia (Kochia scoparia); [16]): 0; Plant response rating, Ragweed [4, 16]: 0; Plant response rating, Ryegrass, Italian [5, 16]: 0; Plant response rating, Pigweed [6, 16]: 20; Plant response rating, Foxtail, Giant [7, 16]: 0; Plant response rating, Foxtail, Giant [7, 17]: 30; Plant response rating, Barnyardgrass [8, 14]: 10; Plant response rating, Barnyardgrass [8, 15]: 30; Plant response rating, Barnyardgrass [8, 16]: 0; Plant response rating, Barnyardgrass [8, 17]: 50; Plant response rating, Wheat [9, 12]: 0; Plant response rating, Wheat [9, 13]: 0; Plant response rating, Galium [10, 12]: 70; Plant response rating, Galium [10, 13]: 90; Plant response rating, Blackgrass [11, 12]: 0; Plant response rating, Blackgrass [11, 13]: 20
Cc1nn(C)c(=O)c(-c2ccc(Cl)c3ccccc23)c1OP(C)(C)=O [Compound 187] | 0 | 20 | 0 | 0 | 0 | 30 | 90 | 100 | 100 | 100 | 100 | 80 | 100 | 100 | 100 | 70 | 90 | 100 | 50 | 80 | Plant response rating, Kochia (kochia (Kochia scoparia); [18]): 60; Plant response rating, Ragweed [4, 18]: 70; Plant response rating, Ryegrass, Italian [5, 18]: 100; Plant response rating, Pigweed [6, 18]: 90; Plant response rating, Foxtail, Giant [7, 17]: 70; Plant response rating, Foxtail, Giant [7, 18]: 20; Plant response rating, Barnyardgrass [8, 14]: 30; Plant response rating, Barnyardgrass [8, 15]: 80; Plant response rating, Barnyardgrass [8, 17]: 90; Plant response rating, Barnyardgrass [8, 18]: 70; Plant response rating, Wheat [9, 12]: 0; Plant response rating, Wheat [9, 13]: 30; Plant response rating, Galium [10, 12]: 90; Plant response rating, Galium [10, 13]: 100; Plant response rating, Blackgrass [11, 12]: 40; Plant response rating, Blackgrass [11, 13]: 70
Cc1cc(C)c2sc(C)c(-c3c(OCC#N)c(C)nn(C)c3=O)c2c1 [Compound 188] | 0 | 0 | 0 | 0 | 0 | 0 | 10 | 20 | 20 | 20 | 50 | 30 | 20 | 80 | 80 | 50 | 80 | 90 | 20 | 80 | Plant response rating, Kochia (kochia (Kochia scoparia); [18]): 20; Plant response rating, Ragweed [4, 18]: 10; Plant response rating, Ryegrass, Italian [5, 18]: 20; Plant response rating, Pigweed [6, 18]: 60; Plant response rating, Foxtail, Giant [7, 17]: 90; Plant response rating, Foxtail, Giant [7, 18]: 10; Plant response rating, Barnyardgrass [8, 14]: 10; Plant response rating, Barnyardgrass [8, 15]: 20; Plant response rating, Barnyardgrass [8, 17]: 30; Plant response rating, Barnyardgrass [8, 18]: 10; Plant response rating, Wheat [9, 12]: 0; Plant response rating, Wheat [9, 13]: 0; Plant response rating, Galium [10, 12]: 70; Plant response rating, Galium [10, 13]: 90; Plant response rating, Blackgrass [11, 12]: 10; Plant response rating, Blackgrass [11, 13]: 60
